Measurements from ChEMBL document CHEMBL1156216, “Amide-based inhibitors of p38alpha MAP kinase. Part 2: design, synthesis and SAR of potent N-pyrimidyl amides” (Bioorg Med Chem Lett, 2010).

What was measured:
[1] = biological target: Mitogen-activated protein kinase 14 (Homo sapiens, UniProt Q16539); assay: Inhibition of human p38alpha assessed as gamma-[32P]ATP incorporation after 60 mins by scintillation counting
Blood = assay: Antiinflammatory activity against LPS-induced TNFalpha production in human diluted whole blood administered 15 mins before LPS treatment after 2 hrs by ELISA; type: functional, tissue-based
Cytochrome P450 3A4 = Cytochrome P450 3A4 (Homo sapiens, UniProt P08684); assay: Inhibition of CYP3A4 after 30 mins by fluorescence assay; type: ADME; conditions: read-out: INH
Cytochrome P450 3A4, sequence (P08684 whole entry): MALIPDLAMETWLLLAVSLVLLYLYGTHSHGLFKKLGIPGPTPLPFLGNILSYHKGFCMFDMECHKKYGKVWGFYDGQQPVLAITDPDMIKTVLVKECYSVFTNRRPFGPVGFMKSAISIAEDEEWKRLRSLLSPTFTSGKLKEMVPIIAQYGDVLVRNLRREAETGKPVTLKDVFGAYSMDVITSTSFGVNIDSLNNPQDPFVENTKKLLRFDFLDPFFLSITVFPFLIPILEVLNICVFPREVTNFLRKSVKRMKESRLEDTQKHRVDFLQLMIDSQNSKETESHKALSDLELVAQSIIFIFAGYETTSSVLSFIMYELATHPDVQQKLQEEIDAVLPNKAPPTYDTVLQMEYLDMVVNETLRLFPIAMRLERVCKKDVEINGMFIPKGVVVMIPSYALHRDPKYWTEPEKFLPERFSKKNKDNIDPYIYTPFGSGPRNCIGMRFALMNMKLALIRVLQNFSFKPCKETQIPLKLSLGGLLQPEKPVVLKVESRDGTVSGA

Mitogen-activated protein kinase 14, sequence (Q16539 whole entry): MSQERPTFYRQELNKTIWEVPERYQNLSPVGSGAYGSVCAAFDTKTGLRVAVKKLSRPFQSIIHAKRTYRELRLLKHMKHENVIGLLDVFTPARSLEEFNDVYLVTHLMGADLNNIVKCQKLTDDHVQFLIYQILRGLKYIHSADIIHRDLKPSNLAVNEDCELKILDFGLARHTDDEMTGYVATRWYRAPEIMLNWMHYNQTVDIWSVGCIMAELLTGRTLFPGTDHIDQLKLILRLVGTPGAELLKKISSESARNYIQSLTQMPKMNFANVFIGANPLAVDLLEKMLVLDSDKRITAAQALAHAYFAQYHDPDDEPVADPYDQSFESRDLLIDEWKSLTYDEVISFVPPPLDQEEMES

| SMILES | IC50 [1] [nM] | IC50 (Blood) [nM] | IC50 (Cytochrome P450 3A4) [nM] |
| --- | --- | --- | --- |
| C[C@H](Nc1nccc(N(CC2CCCCN2)C(=O)c2ccc3c(c2)CCO3)n1)c1ccccc1 (stereo partly drawn) | > 10000 |  |  |
| CCN(C(=O)c1cccc(Cl)c1)c1ccnc(N[C@@H](C)c2ccccc2)n1 | 81 | 533 |  |
| C[C@@H](CO)Nc1nccc(N(CCCCN)C(=O)c2ccc3c(c2)CCO3)n1 | 310 | 2940 | 11700 |
| C[C@H](Nc1nccc(N(CC2CCOCC2)C(=O)c2ccc3c(c2)CCO3)n1)c1ccccc1 | 158 | > 10000 |  |
| CCN(C(=O)c1cccc(C(F)(F)F)c1)c1ccnc(N[C@@H](C)c2ccccc2)n1 | 64 | > 1000 |  |
| CCN(C(=O)c1cc2ccccc2o1)c1ccnc(N[C@@H](C)c2ccccc2)n1 | 179 | > 10000 |  |
| CCc1cccc(C(=O)N(CC)c2ccnc(N[C@@H](C)c3ccccc3)n2)c1 | 65 | 152 |  |
| CC(C)Nc1nccc(N(CC2CCNCC2)C(=O)c2ccc3c(c2)CCO3)n1 | 24 | 88 | 2900 |
| C[C@H](Nc1nccc(N(CCCCO)C(=O)c2ccc3c(c2)CCO3)n1)c1ccccc1 | 96 | 130 |  |
| CCC(COC)Nc1nccc(N(CC2CCNCC2)C(=O)c2ccc3c(c2)CCO3)n1 (stereo not drawn) | 530 | 112 | 367 |
| C[C@H](Nc1nccc(N(CCCS(C)(=O)=O)C(=O)c2ccc3c(c2)CCO3)n1)c1ccccc1 | 72 | 564 |  |
| C[C@H](Nc1nccc(N(CC2CCCNC2)C(=O)c2ccc3c(c2)CCO3)n1)c1ccccc1 (stereo partly drawn) | > 10000 |  |  |
| CCN(C(=O)c1cccc(C)c1)c1ccnc(N[C@@H](C)c2ccccc2)n1 | 13 | 140 |  |
| CCN(C(=O)c1cc(C)ccc1F)c1ccnc(N[C@@H](C)c2ccccc2)n1 | 26 | 58 |  |
| COCCN(C(=O)c1ccc2c(c1)CCO2)c1ccnc(N[C@@H](C)c2ccccc2)n1 | 345 | > 10000 |  |
| C[C@H](Nc1nccc(N(CCCN)C(=O)c2ccc3c(c2)CCO3)n1)c1ccccc1 | > 10000 |  |  |
| CCN(C(=O)c1cccc2c1OCC2)c1ccnc(N[C@@H](C)c2ccccc2)n1 | 90 | 829 |  |
| C[C@H](Nc1nccc(N(CC2CCN(S(N)(=O)=O)CC2)C(=O)c2ccc3c(c2)CCO3)n1)c1ccccc1 | 673 | > 10000 |  |
| CCN(C(=O)c1ccc2c(c1)CCC2)c1ccnc(N[C@@H](C)c2ccccc2)n1 | 45 | 300 |  |
| CCN(C(=O)c1ccc(C)c(C)c1)c1ccnc(N[C@@H](C)c2ccccc2)n1 | 91 | 143 |  |
| CCN(C(=O)c1ccc2c(c1)CCO2)c1ccnc(N[C@@H](C)c2ccccc2)n1 | 17 | 387 |  |
| C[C@H](Nc1nccc(N(CC2CCN(C(N)=O)CC2)C(=O)c2ccc3c(c2)CCO3)n1)c1ccccc1 | 711 | 524 |  |
| CCN(C(=O)c1cccc(C2CC2)c1)c1ccnc(N[C@@H](C)c2ccccc2)n1 | 104 | 349 |  |
| CCN(C(=O)c1ccc2c(c1)CCCC2)c1ccnc(N[C@@H](C)c2ccccc2)n1 | 180 | > 1000 |  |

| SMILES | IC50 [1] [nM] | IC50 (Blood) [nM] | IC50 (Cytochrome P450 3A4) [nM] |
| --- | --- | --- | --- |
| COC[C@H](C)Nc1nccc(N(CC2CCNCC2)C(=O)c2ccc3c(c2)CCO3)n1 | 316 | 460 | 2020 |
| CC(C)CN(C(=O)c1ccc2c(c1)CCO2)c1ccnc(N[C@@H](C)c2ccccc2)n1 | 462 | 2090 |  |
| O=C(c1ccc2c(c1)CCO2)N(CC1CCNCC1)c1ccnc(NC2CCC(O)CC2)n1 (stereo not drawn) | 360 | 3290 | > 20000 |
| CCN(C(=O)c1csc2ccccc12)c1ccnc(N[C@@H](C)c2ccccc2)n1 | 188 | > 1000 |  |
| CCN(C(=O)c1ccc2ccccc2c1)c1ccnc(N[C@@H](C)c2ccccc2)c1 |  | > 1000 |  |
| CCN(C(=O)c1ccc2occc2c1)c1ccnc(N[C@@H](C)c2ccccc2)n1 | 71 | 313 |  |
| CCN(C(=O)c1cn(C)c2ccccc12)c1ccnc(N[C@@H](C)c2ccccc2)n1 | 154 | > 10000 |  |
| CCN(C(=O)c1cccc(C)c1C)c1ccnc(N[C@@H](C)c2ccccc2)n1 | 81 | 400 |  |
| CCN(C(=O)c1ccc(Cl)cc1)c1ccnc(N[C@@H](C)c2ccccc2)n1 | 313 | > 10000 |  |
| CCN(C(=O)c1ccccc1)c1ccnc(N[C@@H](C)c2ccccc2)n1 | 193 | > 10000 |  |
| C[C@H](Nc1nccc(N(CC2CC2)C(=O)c2ccc3c(c2)CCO3)n1)c1ccccc1 | 165 | 704 |  |
| CCN(C(=O)c1ccc(F)c(C)c1)c1ccnc(N[C@@H](C)c2ccccc2)n1 | 39 | 178 |  |
| NC1CCC(Nc2nccc(N(CC3CCNCC3)C(=O)c3ccc4c(c3)CCO4)n2)CC1 (stereo not drawn) | 400 | > 10000 | > 20000 |
| CCN(C(=O)c1ccc2ccccc2c1)c1ccnc(N[C@@H](C)c2ccccc2)n1 | 64 | 187 |  |
| CC(C)Nc1nccc(N(CCCCN)C(=O)c2ccc3c(c2)CCO3)n1 | 17 | 90 | 3120 |
| CC(C)(CO)Nc1nccc(N(CC2CCNCC2)C(=O)c2ccc3c(c2)CCO3)n1 | 3040 | > 10000 | 1540 |
| NCCCCN(C(=O)c1ccc2c(c1)CCO2)c1ccnc(NC2CCC(O)CC2)n1 (stereo not drawn) | 11 | 865 | > 20000 |
| C[C@H](Nc1nccc(N(CCCCN)C(=O)c2ccc3c(c2)CCO3)n1)c1ccccc1 | 4 | 9 | 180 |
| CCN(C(=O)c1ccccc1Cl)c1ccnc(N[C@@H](C)c2ccccc2)n1 | 267 | > 1000 |  |
| COC[C@H](C)Nc1nccc(N(CCCCN)C(=O)c2ccc3c(c2)CCO3)n1 | 25 | 48 | 2650 |
| O=C(c1ccc2c(c1)CCO2)N(CC1CCNCC1)c1ccnc(NC2CC2)n1 | 600 | 50 | 340 |
| CCN(C(=O)c1ccc2c(c1)OCO2)c1ccnc(N[C@@H](C)c2ccccc2)n1 | 164 | > 1000 |  |
| C[C@H](Nc1nccc(N(CC2CCNCC2)C(=O)c2ccc3c(c2)CCO3)n1)c1ccccc1 | 54 | 15 | 94 |
